Source: US20070281992A1, “COMBINATION OF GYRASE B INHIBITORS AND PROTEIN SYNTHESIS INHIBITORS AND USES THEREOF” (priority 2006, published 2007)
Where two headings read alike, the source gives them in different places.

Legend:
Format in all cases: cell-based
[1] = system: Methicillin-Susceptible Staphylococcus aureus Isolates; test: MIC assay (NCCLS broth dilution), MSSA clinical isolates; details: for MIC: read-out: Minimal Inhibitory Concentration
In short: (§1)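 Broth microdilution MICs determined per NCCLS M7-A6 in Mueller Hinton II broth over 11 two-fold dilutions. Novobiocin/tetracycline and novobiocin/minocycline combinations tested at a 2.5:1 ratio. Vancomycin served as control agent; S. aureus ATCC 29213 and E. faecalis ATCC 29212 were QC strains.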

[2] = system: Vancomycin-intermediate Staphylococcus aureus Isolates; test: MIC assay (NCCLS broth dilution), VISA isolates; details: for MIC: read-out: Minimal Inhibitory Concentration
In short: as §1

[3] = system: Unconfirmed Vancomycin-intermediate Staphylococcus aureus Isolates; test: MIC assay (NCCLS broth dilution), unconfirmed VISA isolates; details: for MIC: read-out: Minimal Inhibitory Concentration
In short: as §1

[4] = system: Unconfirmed Vancomycin-intermediate Staphylococcus epidermidis Isolates; test: MIC assay (NCCLS broth dilution), unconfirmed VISE isolates; details: for MIC: read-out: Minimal Inhibitory Concentration
In short: as §1

[5] = system: Linezolid-Resistant Staphylococcus aureus Isolates; test: MIC assay (NCCLS broth dilution), LRSA isolates; details: for MIC: read-out: Minimal Inhibitory Concentration
In short: as §1

[6] = system: Enterococcus faecalis (ATCC 29212); test: MIC assay, quality control strain E. faecalis ATCC 29212; details: ATCC29212, E. faecalis ATCC 29212, repeat runs 22FEB06-09MAR06, combinations at 2.5:1, read-out: Minimal Inhibitory Concentration, quality control
In short: as §1

[7] = Staphylococcus aureus, 52 MSSA isolates, combinations at 2.5:1, given as NB/partner

SMILES: CN(C)c1ccc(O)c2c1C[C@H]1C[C@H]3[C@H](N(C)C)C(O)=C(C(N)=O)C(=O)[C@@]3(O)C(O)=C1C2=O [MI, minocycline]
- MIC Range ([1]; 52 MSSA isolates, Mueller Hinton II Broth, combinations at 2.5:1, given as NB/partner): .06 to .12 µg/mL
- MIC ([1]; Staphylococcus aureus, MSSA isolate 133, 03MAR06): 0.06 µg/mL
- MIC ([1]; Staphylococcus aureus, MSSA isolate 134, 03MAR06): 0.06 µg/mL
- MIC ([1]; Staphylococcus aureus, MSSA isolate 135, 03MAR06): 0.06 µg/mL
- MIC ([1]; Staphylococcus aureus, MSSA isolate 753, 22FEB06): 0.12 µg/mL
- MIC ([1]; Staphylococcus aureus, MSSA isolate 754, 22FEB06): 0.12 µg/mL
- MIC ([1]; Staphylococcus aureus, MSSA isolate 754, 24FEB06): 0.12 µg/mL
- MIC ([1]; Staphylococcus aureus, MSSA isolate 755, 22FEB06): 0.12 µg/mL
- MIC ([1]; Staphylococcus aureus, MSSA isolate 756, 03MAR06): 0.06 µg/mL
- MIC ([1]; Staphylococcus aureus, MSSA isolate 779, 22FEB06): 0.12 µg/mL
- MIC ([1]; Staphylococcus aureus, MSSA isolate 780, 03MAR06): 0.12 µg/mL
- MIC ([1]; Staphylococcus aureus, MSSA isolate 781, 03MAR06): 0.06 µg/mL
- MIC ([1]; Staphylococcus aureus, MSSA isolate 782, 22FEB06): 0.12 µg/mL
- MIC ([1]; Staphylococcus aureus, MSSA isolate 783, 22FEB06): 0.12 µg/mL
- MIC ([1]; Staphylococcus aureus, MSSA isolate 784, 22FEB06): 0.12 µg/mL
- MIC ([1]; Staphylococcus aureus, MSSA isolate 785, 22FEB06): 0.12 µg/mL
- MIC ([1]; Staphylococcus aureus, MSSA isolate 786, 22FEB06): 0.12 µg/mL
- MIC ([1]; Staphylococcus aureus, MSSA isolate 787, 22FEB06): 0.12 µg/mL
- MIC ([1]; Staphylococcus aureus, MSSA isolate 788, 22FEB06): 0.12 µg/mL
- MIC ([1]; Staphylococcus aureus, MSSA isolate 789, 24FEB06): 0.12 µg/mL
- MIC ([1]; Staphylococcus aureus, MSSA isolate 790, 24FEB06): 0.12 µg/mL
- MIC ([1]; Staphylococcus aureus, MSSA isolate 791, 24FEB06): 0.12 µg/mL
- MIC ([1]; Staphylococcus aureus, MSSA isolate 792, 03MAR06): 0.06 µg/mL
- MIC ([1]; Staphylococcus aureus, MSSA isolate 793, 24FEB06): 0.12 µg/mL
- MIC ([1]; Staphylococcus aureus, MSSA isolate 794, 24FEB06): 0.12 µg/mL
- MIC ([1]; Staphylococcus aureus, MSSA isolate 994, 22FEB06): 0.12 µg/mL
- MIC ([1]; Staphylococcus aureus, MSSA isolate 995, 03MAR06): 0.12 µg/mL
- MIC ([1]; Staphylococcus aureus, MSSA isolate 996, 22FEB06): 0.06 µg/mL
- MIC ([1]; Staphylococcus aureus, MSSA isolate 997, 22FEB06): 0.12 µg/mL
- MIC ([1]; Staphylococcus aureus, MSSA isolate 998, 03MAR06): 0.06 µg/mL
- MIC ([1]; Staphylococcus aureus, MSSA isolate 999, 22FEB06): 0.12 µg/mL
- MIC ([1]; Staphylococcus aureus, MSSA isolate 1000, 24FEB06): 0.12 µg/mL
- MIC ([1]; Staphylococcus aureus, MSSA isolate 1001, 24FEB06): 0.12 µg/mL
- MIC ([1]; Staphylococcus aureus, MSSA isolate 1002, 24FEB06): 0.12 µg/mL
- MIC ([1]; Staphylococcus aureus, MSSA isolate 1003, 03MAR06): 0.06 µg/mL
- MIC ([1]; Staphylococcus aureus, MSSA isolate 1005, 24FEB06): 0.06 µg/mL
- MIC ([1]; Staphylococcus aureus, MSSA isolate 1006, 24FEB06): 0.12 µg/mL
- MIC ([1]; Staphylococcus aureus, MSSA isolate 1007, 24FEB06): 0.12 µg/mL
- MIC ([1]; Staphylococcus aureus, MSSA isolate 1008, 24FEB06): 0.06 µg/mL
- MIC ([1]; Staphylococcus aureus, MSSA isolate 1009, 24FEB06): 0.12 µg/mL
- MIC ([1]; Staphylococcus aureus, MSSA isolate 1131, 24FEB06): 0.06 µg/mL
- MIC ([1]; Staphylococcus aureus, MSSA isolate 1132, 03MAR06): 0.06 µg/mL
- MIC ([1]; Staphylococcus aureus, MSSA isolate 1133, 24FEB06): 0.12 µg/mL
- MIC ([1]; Staphylococcus aureus, MSSA isolate 1134, 24FEB06): 0.12 µg/mL
- MIC ([1]; Staphylococcus aureus, MSSA isolate 1654, 03MAR06): 0.12 µg/mL
- MIC ([1]; Staphylococcus aureus, MSSA isolate 1656, 03MAR06): 0.06 µg/mL
- MIC ([1]; Staphylococcus aureus, MSSA isolate 1662, 03MAR06): 0.06 µg/mL
- MIC ([1]; Staphylococcus aureus, MSSA isolate 1663, 03MAR06): 0.12 µg/mL
- MIC ([1]; Staphylococcus aureus, MSSA isolate 1666, 03MAR06): 0.06 µg/mL
- MIC ([1]; Staphylococcus aureus, MSSA isolate 1667, 03MAR06): 0.12 µg/mL
- MIC ([1]; Staphylococcus aureus, MSSA isolate 1668, 03MAR06): 0.06 µg/mL
- MIC ([1]; Staphylococcus aureus, MSSA isolate 1671, 03MAR06): 0.06 µg/mL
- MIC ([1]; Staphylococcus aureus, MSSA isolate 1728, 03MAR06): 0.06 µg/mL
- MIC ([1]; Staphylococcus aureus, MSSA isolate 1728, retest 09MAR06): 0.06 µg/mL
- MIC50 [1, 7]: 0.12 µg/mL
- MIC90 [1, 7]: 0.12 µg/mL
- MIC Range ([2]; 2 VISA isolates, combinations at 2.5:1, given as NB/partner): .06 to 25 µg/mL
- MIC ([2]; Staphylococcus aureus, VISA isolate 2012, 03MAR06): 0.25 µg/mL
- MIC ([2]; Staphylococcus aureus, VISA isolate 2018, 03MAR06): 0.06 µg/mL
- MIC50 ([2]; Staphylococcus aureus, 2 VISA isolates, combinations at 2.5:1, given as NB/partner): 0.06 µg/mL
- MIC Range ([3]; 6 unconfirmed VISA isolates (vancomycin MIC 4 ug/ml), combinations at 2.5:1): ≦.015-2 μg/ml
- MIC ([3]; Staphylococcus aureus, Unconfirmed VISA isolate 2013, 03MAR06): 0.12 µg/mL
- MIC ([3]; Staphylococcus aureus, Unconfirmed VISA isolate 2014, 03MAR06): 2 µg/mL
- MIC ([3]; Staphylococcus aureus, Unconfirmed VISA isolate 2015, 03MAR06): < 0.015 µg/mL
- MIC ([3]; Staphylococcus aureus, Unconfirmed VISA isolate 2016, 03MAR06): 0.06 µg/mL
- MIC ([3]; Staphylococcus aureus, Unconfirmed VISA isolate 2017, 03MAR06): 0.03 µg/mL
- MIC ([3]; Staphylococcus aureus, Unconfirmed VISA isolate 2019, 03MAR06): 2 µg/mL
- MIC50 ([3]; Staphylococcus aureus, 6 unconfirmed VISA isolates (vancomycin MIC 4 ug/ml), combinations at 2.5:1): 0.06 µg/mL
- MIC Range ([4]; 3 unconfirmed VISE isolates, combinations at 2.5:1): 0.12 to 0.25 µg/mL
- MIC ([4]; Staphylococcus epidermidis, Unconfirmed VISE isolate 2024, 09MAR06): 0.25 µg/mL
- MIC ([4]; Staphylococcus epidermidis, Unconfirmed VISE isolate 2025, 09MAR06): 0.12 µg/mL
- MIC ([4]; Staphylococcus epidermidis, Unconfirmed VISE isolate 2026, 03MAR06): 0.25 µg/mL
- MIC50 ([4]; Staphylococcus epidermidis, 3 unconfirmed VISE isolates, combinations at 2.5:1): 0.25 µg/mL
- MIC Range ([5]; 3 LRSA isolates, combinations at 2.5:1): 0.12 to 2 µg/mL
- MIC ([5]; Staphylococcus aureus, LRSA isolate 1651, 24FEB06): 0.12 µg/mL
- MIC ([5]; Staphylococcus aureus, LRSA isolate 1652, 24FEB06): 0.12 µg/mL
- MIC ([5]; Staphylococcus aureus, LRSA isolate 1725, 24FEB06): 2 µg/mL
- MIC50 ([5]; Staphylococcus aureus, 3 LRSA isolates, combinations at 2.5:1): 0.12 µg/mL
- MIC [6]: 2 µg/mL
